Laboratory results as given in ChEMBL document CHEMBL1156496 (J Biol Chem, 2007).

Assays:
[1] = Binding affinity to complement component C3c in human plasma; assay type: cell-free
[2] = Inhibition of complement component C3c

- Kd [1]: 0.39 µM
- IC50 [2]: 12 µM
Compound: CC[C@H](C)[C@H](N)C(=O)N[C@H]1CSSC[C@@H](C(=O)N[C@H](C(N)=O)[C@@H](C)O)NC(=O)[C@H](CCCNC(=N)N)NC(=O)[C@H](Cc2cnc[nH]2)NC(=O)[C@H](Cc2cnc[nH]2)NC(=O)CNC(=O)[C@H](Cc2c[nH]c3ccccc23)NC(=O)[C@H](CC(=O)O)NC(=O)[C@H](CCC(N)=O)NC(=O)[C@H](C(C)C)NC(=O)[C@H](C(C)C)NC1=O [COMPSTATIN]
